According to patent publication US20260315609A1, “MIXED VASOPRESSIN RECEPTOR AGONIST-ANTAGONIST FOR TREATING END-STAGE LIVER DISEASE AND COMPLICATIONS ASSOCIATED THEREOF” (FERRING B.V., priority 2022, published 2026):
“And” between values parts separate entries of the source, which are not always exact repeats. Identical values can stand only once. Starred links: 1 amine or outer side, 2 acyl side, 3 side chain; linkers in the order of their positions; H or OH if unused. Positions of bridges follow the written chain, without caps; N, C: chain ends. Non-standard residues stand in square brackets, D forms with d. Residues, ends and D or L forms follow the SMILES beside them. Chains are numbered I, II in the order given. *: point of attachment. isoGln = NC(=O)[C@H](CCC(=O)[*:2])N[*:1]; εLys = N[C@@H](CCCCN[*:1])C(=O)[*:2]; Dab = NCC[C@H](N)C(=O)O; PhAc = O=C(Cc1ccccc1)*

Key:
[1] = M1 formation, single dose subcutaneous infusion in rats; assay type: in vivo, rat; conditions: s.c. infusion
Text: The incision for the mini-pump was on the cranial right side of the spine, a trocar or hemostats may be inserted to create a subcutaneous pocket, and the pump inserted into the subcutaneous pocket with the delivery port of the mini-pump pointing cranially. The doses were given into mid-dorsal area via surgical implantation of the pump filled with test article. Following insertion of the implant, a 4 cm×4 cm area surrounding the pump will be delineated and designated as the test site. The test site will be delineated and remarked as necessary thereafter.
Blood samples were collected from each rat at various timepoints, including 0.25 hour (hr), 1 hr, 3 hr, 7 hr, 24 hr, 25 hr, 27 hr, and 29 hr.

[2] = system: CCl4-induced rat model of cirrhosis and ascites; assay: CCl4-induced cirrhosis and ascites rats, cohort 3 (single IV bolus), hemodynamics and serum aldosterone; assay type: in vivo; conditions: 100 μg/kg IV
Description: Animals: 90 male Wistar rats (Charles River Laboratories, Espana S.A) weighing 200-220 grams at the time of receipt were subjected to a cirrhosis induction program; high dose CCl4 was administered by inhalation twice weekly (Monday and Friday) and phenobarbital (0.3 g/L) was added to drinking water. In some instances, liver damage in this model is caused by hepatotoxic CCl4 metabolites produced in the liver. In some instances, phenobarbital induction of the microsomal enzyme oxidizing system exaggerates the intensity of the hepatic necrosis. […] Animals were allowed free access to food and water throughout the study.
The study consisted of 3 treatment cohorts, as detailed in Table 10. Animals developing and maintaining ascites for 2 weeks were randomly assigned to treatment groups. Ringer Braun saline solution was used as vehicle. IV bolus were administered via femoral veins.
Cohort 3: Animals were anesthetized and the left femoral artery and vein catheterized. The femoral artery catheter was connected to a transducer for mean arterial pressure (MAP) measurements. The right jugular vein was isolated and a catheter placed in the right atrium; a thermocouple was advanced through the aortic arch via left carotid approach to monitor the intraarterial temperature and cardiac output (CO). MAP and CO were measured and recorded in a multichannel system (Powerlab). CO was measured by thermodilution following the administration of a 200 μL/animal bolus of Ringer solution (20-23° C.) into the right atrium using a spring-loaded Hamilton syringe. A midline abdominal incision (2 cm) was created and the portal vein cannulated through the ileocolic vein to measure portal pressure (PP). Constant infusion (2 mL/hr) of Ringer solution was given through the femoral vein. After 30 minutes of infusion, baseline 30 minute values for PP, MAP, CO, and systemic vascular resistance (SVR) were recorded. In the middle of the 30 minute data collection, a blood sample (0.8 mL) was obtained via the femoral artery catheter for serum aldosterone measurements. […] Five 30 minute data collections were recorded for PP, MAP, CO, and SVR over 150 minutes, with blood samples collected in the middle of each 30 minute data collection. Following blood sampling, packed cells were reconstituted with Ringer solution and reinjected over a period of 3 minutes.

[3] = system: bile duct ligation (BDL) and ascites rat model; assay: Bile duct ligation (BDL) and ascites rats, SC b.i.d. 5 days; assay type: in vivo; conditions: for Animal Body Weight: 99.5 μg FB/kg SC b.i.d.
Description: Animals: Male Sprague Dawley rats weighing 300-400 grams with bile duct ligations (BDL) performed at 7 weeks of age by the vendor (Harlan, IN). BDL rats were administered 50 μg of vitamin K1 at the time of BDL surgery, prior to shipment, and then once weekly to reduce potential mortality from hemorrhagic complications.
The working solution was stored at 4° C. over the course of the study and warmed to room temperature for 30 minutes before administration.
Animals were weighed daily. […] Each metabolic cage was set up for continuous measurement of spontaneous urine output via force transducers placed […] the urine collection vials to monitor and record the time course of urine output. Data from the calibrated force transducers every time the rats void. […] Only 16 metabolic cages could be used, urine, water, and food intake data were not collected for one animal in the vehicle group. Animals were returned to their home cages for the remainder of the study and were sacrificed before the second treatment on the fifth day. Blood samples were collected from each animal via cardio puncture. Laparotomies were performed and ascites fluid collected and volume measured by pipet. Spleens were dissected from each animal, any excessive fat or connective tissue was removed and the spleens were weighted.

CC[C@H](C)[C@@H]1NC(=O)[C@H](Cc2ccccc2)NC(=O)[C@@H](N)CSSC[C@@H](C(=O)N2CCC[C@H]2C(=O)N[C@@H](CCNC(=O)[C@@H](N)CCCCNC(=O)[C@H](CCCCNC(C)=O)NC(=O)CC[C@H](NC(=O)[C@H](CCCNC(=N)N)NC(=O)[C@@H]2CCCN2C(=O)[C@H](C)NC(=O)[C@H](CC(N)=O)NC(=O)[C@H](CCC(N)=O)NC(=O)[C@H](Cc2ccccc2)NC(=O)[C@@H](Cc2ccc(OC)cc2)NC(=O)Cc2ccccc2)C(N)=O)C(=O)NCC(N)=O)NC(=O)[C@H](CC(N)=O)NC(=O)[C@H](CCC(N)=O)NC1=O [Compound 1, Glycinamide, L-cysteinyl-L-phenylalanyl-L-isoleucyl-L-glutaminyl-L-asparaginyl-L-cysteinyl-L-prolyl-N4-(phenylacetyl-O-methyl-D-tyrosyl-L-phenylalanyl-L-glutaminyl-L-asparaginyl-L-alanyl-L-prolyl-L-arginyl-L-isoglutamyl-N5-acetyl-L-lysyl-L-ε-lysyl)-L-2,4-diaminobutyryl-, cyclic (1→6)-disulfide] (I: H-CFIQNCP[Dab]G-NH2 / II: PhAc-[dY](Me)FQNAPR[isoGln]K(Ac)[εLys]; disulfide I:1-I:6; amide I:8-II:C)
metabolised ([1]; rat, plasma, sc, 4.8 mg/kg, rats): < 20%
adverse events ([1]; rats and mini-pigs): No relevant adverse events were reported
Cardiac output - portal pressure ([2]; 0 min): 173 mL/min
Mean Arterial Pressure ([2]; 0 min): 79 mmHg
Systemic Vascular Resistance ([2]; 0 min): 0.49 mmHg * min/mL
Cardiac output - portal pressure ([2]; 30 min): 178 mL/min
Mean Arterial Pressure ([2]; 30 min): 84 mmHg
Portal Pressure ([2]; 30 min): 13.9 mmHg
Systemic Vascular Resistance ([2]; 30 min): 0.54 mmHg * min/mL
Cardiac output - portal pressure ([2]; 60 min): 177 mL/min
Mean Arterial Pressure ([2]; 60 min): 91 mmHg
Portal Pressure ([2]; 60 min): 12.8 mmHg
Systemic Vascular Resistance ([2]; 60 min): 0.54 mmHg * min/mL
Cardiac output - portal pressure ([2]; 90 min): 158 mL/min
Mean Arterial Pressure ([2]; 90 min): 98 mmHg
Portal Pressure ([2]; 90 min): 11.5 mmHg
Systemic Vascular Resistance ([2]; 90 min): 0.71 mmHg * min/mL
Cardiac output - portal pressure ([2]; 120 min): 140 mL/min
Mean Arterial Pressure ([2]; 120 min): 93 mmHg
Portal Pressure ([2]; 120 min): 10.6 mmHg
Systemic Vascular Resistance ([2]; 120 min): 0.72 mmHg * min/mL
Cardiac output - portal pressure ([2]; 150 min): 139 mL/min
Mean Arterial Pressure ([2]; 150 min): 92 mmHg
Portal Pressure ([2]; 150 min): 9.7 mmHg
Systemic Vascular Resistance ([2]; 150 min): 0.74 mmHg * min/mL
reduction in serum aldosterone ([2]; end of study): greater than 50%
Serum Aldosterone ([2]; end of study (vehicle 786)): 264 ng/dL
Animal Body Weight ([3]; day 1): 362.4 g
Animal Body Weight ([3]; day 2): 330.2 g
Animal Body Weight ([3]; day 3): 324.6 g
Animal Body Weight ([3]; day 4): 329.0 g
Animal Body Weight ([3]; day 5): 329.8 ± 2.9 g and 329.8 g
Urine Volume ([3]; 5-24 hr): 31.2 mL
Urine Volume, Δ versus vehicle ([3]; 5-24 hr): 46%
Urine creatinine content ([3]; 5-24 hr): 9.5 mg
Urine creatinine content, Δ versus vehicle ([3]; 5-24 hr): −32%
Urine potassium content ([3]; 5-24 hr): 0.8 mEq
Urine potassium content, Δ versus vehicle ([3]; 5-24 hr): −60%
Urine sodium content ([3]; 5-24 hr): 1.1 mEq
Urine sodium content, Δ versus vehicle ([3]; 5-24 hr): 85%
Urine Volume ([3]; 4 hr): 9.8 mL
Urine Volume, Δ versus vehicle ([3]; 4 hr): 367%
Urine creatinine content ([3]; 4 hr): 2.7 mg
Urine creatinine content, Δ versus vehicle ([3]; 4 hr): 8%
Urine potassium content ([3]; 4 hr): 1.1 mEq
Urine potassium content, Δ versus vehicle ([3]; 4 hr): 394%
Urine sodium content ([3]; 4 hr): 2.6 mEq
Urine sodium content, Δ versus vehicle ([3]; 4 hr): 2342%
Net Fluid Balance ([3]; 24 hours (vehicle 10.0)): -24.3 mL
Urine Volume ([3]; 24 hr): 41.0 ± 4.3 mL and 41.0 mL
decrease in mean body weight ([3]; between day 1 and 2): 32.2 g
further decrease in mean body weight ([3]; between days 2 and 3): 5.6 g
BUN ([3]; day 5): 34 mg/dL
BUN, Δ versus vehicle ([3]; day 5): 64%
Cl ([3]; day 5): 100 mEq/L
Cl, Δ versus vehicle ([3]; day 5): −3%
Creatinine (blood) ([3]; day 5): 0.3 mg/dL
Na (blood) ([3]; day 5): 139 mEq/L
Na (blood), Δ versus vehicle ([3]; day 5): −1%
PHOS ([3]; day 5): 5.1 mg/dL
PHOS, Δ versus vehicle ([3]; day 5): −21%
difference in final body weight versus vehicle ([3]; day 5): 39.8 g
Spleen Weight ([3]; day 5 (vehicle 2.7)): 2.3 g
Ascites Volume ([3]; day 5 (vehicle 19.8)): 3.8 ± 1.8 mL and 3.8 mL
hyponatremia ([3]; repeat administration over 5 days): failed to provide hyponatremia
